The results in this text go back to patent US7384975B2, “Substituted furochromenes, preparation thereof and their antiinflammatory action” (GlaxoSmithKline Istrazivacki Centar Zagreb d.o.o., priority 2003, dated 2008).

SMILES strings stand for the structures.

The subject of the assay is Balb/C mice. The experiment in a line: Model of lung eosinophilia in mice (ovalbumin sensitization and provocation). It counts as in vivo. Particulars: i.n. 2 mg/kg daily from 2 days prior to the provocative test until the end, lavage 48 hours after ovalbumin provocation. Here is the method: Model of Lung Eosinophilia in Mice
Male Balb/C mice (Charles River) of 20-25 g of body weight were randomly divided into groups. They were sensitized by i.p. application of ovalbumin (Sigma) on days zero and fourteen. On day twenty the mice were subjected to a provocative test by i.n. application of ovalbumin (positive control and test groups) or PBS (negative control). After 48 hours the animals were anesthetized and the lungs were rinsed with 1 mL of PBS. The cells were centrifuged on Cytospin 3 cytocentrifuge (Shandon). Then the cells were stained with Diff-Quick (Dade) and the percentage of eosinophils was determined by differential counting of at least 100 cells.
Beclomethazone was used as a standard substance in addition to positive and negative controls. The compound was applied daily i.n. in a dose of 2 mg/kg for 2 days prior to the provocative test and until the end of the investigation.
The compound 13 reduced the number of eosinophils in the lavage and histological preparations of lungs for 50% in relation to the positive control group.

As to `O=c1oc2cc(O)cc(O)c2c(O)c1-c1cc2c(=O)oc3cc(O)cc(O)c3c2o1` [Compound 13, 7,9-Dihydroxy-2-(4,5,7-trihydroxy-2-oxo-2H-chromene-3-yl)-4H-furo[3,2-c]chromene-4-one], the “reduction of the number of eosinophils in the lavage and histological preparations of lungs in relation to the positive control group” value turned out to be 50%.
